Laboratory results from US20140128357A1, “METHODS OF PRODUCING AND USING BRASSINOSTEROIDS TO PROMOTE GROWTH, REPAIR AND MAINTENANCE OF SKELETAL MUSCLE AND SKIN” (Rutgers University, priority 2010, published 2014).
Marks after values point to notes of the source that are not given here.

Assays:
[1] = tested on: TNF-α, TGF-β and ICAM-1 mRNA in wounds; assay: Cytokine and chemokine mRNA in wound tissue, qPCR; type: in vivo; details: day 10 post-wounding, 10 μg/mouse topically
Procedure: Cutaneous would healing is characterized by an initial inflammatory response. To evaluate the effect of brassinosteroids on inflammation in wound healing, mRNA levels of proinflammatory cytokines TNF-α and TGF-β and an adhesion chemokine ICAM-1 were measured in the wound tissue of control and treated mice on day 10 post-wounding and treatment with HB, positive control (CGS-21680), or negative control (vehicle).
Total RNA was extracted from fibroblasts using Trizol (Invitrogen, Carlsbad, Calif.). RNA was quantified spectrophotometrically by absorbance measurements at 260 and 280 nm using the NanoDrop reader (NanoDrop Technologies, Wilmington, Del.). Quality of RNA was assessed by gel electrophoresis. RNA was then treated with DnaseI (Invitrogen, Carlsbad, Calif.) to remove traces of DNA contamination and the cDNAs were synthesized with 2.5 μg of RNA using Stratascript reverse transcriptase (Stratagene, Santa Clara, Calif.) according to the manufacturers' protocols. Quantitative PCR was performed in duplicate essentially as described previously (Komarnytsky et al., Int. J. Obes. 35: 236-43, 2011) using the following gene-specific primers (IDT, Coralville, Iowa) selected using the Primer Express 2.0 software (Applied Biosystems, Foster City, Calif.): β-actin, forward primer 5′-GGGAAATCGTGCGTGACATT-3′ (SEQ ID NO: 5), and reverse primer 5′-GCG GCA GTG GCC ATC TC-3′ (SEQ ID NO: 6). Target gene expression of the housekeeping gene β-actin was assigned a value of 1. Samples were subjected to a melting curve analysis to confirm the amplification specificity. The relative change in the […] with respect to the endogenous control gene was determined using 2ΔΔCT method (Winer et al., Anal. Biochem. 270: 41-9, 1999).

[2] = tested on: elastin mRNA in human neonatal dermal fibroblasts (HNDF); assay: Elastin gene expression in human dermal fibroblasts, qPCR; type: cell-based; details: 16 h
Procedure: Human neonatal dermal fibroblasts (HNDF) were maintained in DMEM+10% FBS and were kept in a humidified 37° C. incubator with 5% CO2. Cells were plated at a density of 1×10^4 cells per well in a 24-well plate and incubated for 24 h, or until 100% confluency was reached. Subsequently, the media was removed and cells were washed with 500 μL PBS twice to remove detached cells or cell debris. HNDF were then treated for 16 h as follows: DMEM only, retinoic Acid 5 μM, retinoic acid 10 μM, Homocastasterone 5 μM and Homocastasterone 10 μM.
RNA was extracted from HNDF using Trizol reagent (Invitrogen) following manufacturer instructions. RNA was quantified spectrophotometrically by absorbance measurements at 260 nm and 280 nm using the NanoDrop system (NanoDrop Technologies, Wilmington, Del.). Quality of RNA was assessed by separation in gel-electrophoresis. To remove any traces of DNA contamination, RNA was then treated with Dnase I (Invitrogen) following the manufacturer guidelines. Complementary DNAs (cDNAs) were synthesized using 3.0 μg of RNA for each sample using Applied Biosystems High Capacity cDNA Reverse Transcription Kit following the manufacturer's protocol.
Quantitative RT-PCR (qPCR) amplifications were carried out in triplicate on an ABI 7300 Real-Time Detection System in a total volume of 25 μl containing 12.5 μl Brilliant SYBR® Green PCR master mix (Applied Biosystems), 5 μl of the 1:25 diluted cDNA, 0.5 μl of 6 μM gene-specific primers (IDT, Coralville, Iowa) and […] PCR-grade water. Primers were synthesized by Integrated DNA Technologies, Inc. (Coralville, Iowa, USA) as follows: β-actin, forward primer 5′-ACGTTGCTATCCAGGCTGTGCTAT-3′ (SEQ ID NO: 1), reverse primer 5′-CTCGGTGAGGATCTTCATGAGGTAGT-3′ (SEQ ID NO: 2); elastin, forward primer 5′-AAGCAGCAGCAAAGTTCGGT-3′ (SEQ ID NO: 3), and reverse primer 5′-ACTAAGCCTGCAGCAGCTCCATA-3′ (SEQ ID NO: 4). qPCR amplifications were performed on the 7300 Real Time PCR System (A&B Applied Biosystems) using 1 cycle at 50° C. for 2 min, 1 cycle at 95° C. for 10 min, followed by 40 cycles of 15 s at 95° C. and 1 min at 60° C. The dissociation curve was completed with one cycle of 15 s at 95° C., 1 min at 60° C., and 15 s of 95° C. No RT (NRT) and no template control (NTC) were included in each experiment as quality control steps. Target mRNA expression was analyzed using the ΔΔCt method and normalized with respect to the expression of the β-actin housekeeping gene. Cells treated with DMEM only (negative control) served as the calibrator sample in this study, and a value of 1.0 was assigned to the target gene expression of the calibrator sample. All samples were run in triplicate. A p value of 0.001 was considered to be significant.

Row | SMILES | ICAM-1 mRNA in wound tissue [1] | TGF-β mRNA in wound tissue [1] | TNF-α mRNA in wound tissue [1] | Increase in elastin mRNA levels (-fold over control) ([2]; 5 μM) [fold] | Increase in elastin mRNA levels (-fold over control) ([2]; 10 μM, listed as Homocastasterone) | Increase in elastin mRNA levels (-fold over control) ([2]; 10 μM, listed as homocastasterone)
1 | CC[C@@H](C(C)C)[C@H](O)[C@@H](O)[C@@H](C)[C@H]1CC[C@H]2[C@@H]3COC(=O)[C@H]4C[C@H](O)[C@H](O)C[C@]4(C)[C@H]3CC[C@]12C [Compound 1, (22S,23S,24S)-2α,3α,22,23-tetrahydroxy-24 ethyl-β-homo-7-oxo-5α-cholestane-6-one] | significant suppression | weak effect on the downregulation | nearly complete downregulation |  |  | 
2 | CC[C@@H](C(C)C)[C@H](O)[C@@H](O)[C@@H](C)[C@H]1CC[C@H]2[C@@H]3CC(=O)[C@H]4C[C@H](O)[C@H](O)C[C@]4(C)[C@H]3CC[C@]12C [Compound 2, (22S,23S,24S)-2α,3α, 22,23-tetrahydroxy-24-ethyl-5α-cholestan-6-one] |  |  |  | 1.7 | 3.2** fold | up to 3.23±0.4 fold
